Data: ChEMBL document CHEMBL5678816, “A Next-Generation TRK Kinase Inhibitor Overcomes Acquired Resistance to Prior TRK Kinase Inhibition in Patients with TRK Fusion-Positive Solid Tumors” (Cancer Discov, 2017)
Activity calls are given as the source filed them. The rule behind the calls is not given here.

Tests used:
[1] = tested on: MDA-MB-231; assay: Inhibition of cell proliferation in human MDA-MB-231 cells upto 10 umol/L incubated for 72 hrs by DAPI staining based analysis; format: functional; settings: dose <= 10.0 µmol/L
[2] = tested on: MIA PaCa-2; assay: Inhibition of cell proliferation in human MIA PaCa-2 cells upto 10 umol/L incubated for 72 hrs by DAPI staining based analysis; format: functional; settings: dose <= 10.0 µmol/L
[3] = molecular target: Receptor-interacting serine/threonine-protein kinase 2 (Homo sapiens) (UniProt O43353); assay: Inhibition of RIPK2 (unknown origin) at 1 uM in presence of ATP relative to control; values are per cent of control
Receptor-interacting serine/threonine-protein kinase 2 (Homo sapiens), sequence (O43353 whole entry): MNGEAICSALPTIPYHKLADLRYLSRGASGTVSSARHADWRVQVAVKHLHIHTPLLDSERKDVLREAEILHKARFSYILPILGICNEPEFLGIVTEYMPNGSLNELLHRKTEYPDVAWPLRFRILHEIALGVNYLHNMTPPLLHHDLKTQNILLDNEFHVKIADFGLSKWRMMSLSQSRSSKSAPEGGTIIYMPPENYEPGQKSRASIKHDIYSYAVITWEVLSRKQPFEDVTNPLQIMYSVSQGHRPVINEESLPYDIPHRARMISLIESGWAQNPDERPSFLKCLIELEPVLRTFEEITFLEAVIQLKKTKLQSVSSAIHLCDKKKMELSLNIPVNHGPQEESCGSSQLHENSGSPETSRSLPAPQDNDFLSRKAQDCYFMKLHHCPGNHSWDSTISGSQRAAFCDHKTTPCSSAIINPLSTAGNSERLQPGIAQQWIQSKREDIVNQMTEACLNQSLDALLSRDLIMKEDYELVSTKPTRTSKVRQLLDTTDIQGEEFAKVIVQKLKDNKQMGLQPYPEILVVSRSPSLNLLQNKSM

[4] = molecular target: Dual specificity mitogen-activated protein kinase kinase 7 (Homo sapiens) (UniProt O14733); assay: Inhibition of MKK7 (unknown origin) at 1 uM in presence of ATP relative to control; values are per cent of control
[5] = molecular target: Receptor tyrosine-protein kinase erbB-4 (Homo sapiens) (UniProt Q15303); assay: Inhibition of ErbB4 (unknown origin) at 1 uM in presence of ATP relative to control; values are per cent of control
[6] = tested on: CAL-27; assay: Inhibition of cell proliferation in human CAL-27 cells upto 10 umol/L incubated for 72 hrs by DAPI staining based analysis; format: functional; settings: dose <= 10.0 µmol/L
[7] = molecular target: Macrophage-stimulating protein receptor (Homo sapiens) (UniProt Q04912); assay: Inhibition of Ron (unknown origin) at 1 uM in presence of ATP relative to control; values are per cent of control
Macrophage-stimulating protein receptor (Homo sapiens), sequence (Q04912 25-304 limits assumed): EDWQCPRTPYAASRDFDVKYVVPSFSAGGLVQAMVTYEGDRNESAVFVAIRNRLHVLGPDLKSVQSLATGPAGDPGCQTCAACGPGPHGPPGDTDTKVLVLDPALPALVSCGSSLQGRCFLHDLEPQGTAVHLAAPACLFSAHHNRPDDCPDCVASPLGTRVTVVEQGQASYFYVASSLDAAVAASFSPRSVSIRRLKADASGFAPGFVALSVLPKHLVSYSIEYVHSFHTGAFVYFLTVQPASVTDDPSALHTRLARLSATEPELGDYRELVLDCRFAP
Macrophage-stimulating protein receptor (Homo sapiens), sequence (Q04912 310-1400 limits assumed): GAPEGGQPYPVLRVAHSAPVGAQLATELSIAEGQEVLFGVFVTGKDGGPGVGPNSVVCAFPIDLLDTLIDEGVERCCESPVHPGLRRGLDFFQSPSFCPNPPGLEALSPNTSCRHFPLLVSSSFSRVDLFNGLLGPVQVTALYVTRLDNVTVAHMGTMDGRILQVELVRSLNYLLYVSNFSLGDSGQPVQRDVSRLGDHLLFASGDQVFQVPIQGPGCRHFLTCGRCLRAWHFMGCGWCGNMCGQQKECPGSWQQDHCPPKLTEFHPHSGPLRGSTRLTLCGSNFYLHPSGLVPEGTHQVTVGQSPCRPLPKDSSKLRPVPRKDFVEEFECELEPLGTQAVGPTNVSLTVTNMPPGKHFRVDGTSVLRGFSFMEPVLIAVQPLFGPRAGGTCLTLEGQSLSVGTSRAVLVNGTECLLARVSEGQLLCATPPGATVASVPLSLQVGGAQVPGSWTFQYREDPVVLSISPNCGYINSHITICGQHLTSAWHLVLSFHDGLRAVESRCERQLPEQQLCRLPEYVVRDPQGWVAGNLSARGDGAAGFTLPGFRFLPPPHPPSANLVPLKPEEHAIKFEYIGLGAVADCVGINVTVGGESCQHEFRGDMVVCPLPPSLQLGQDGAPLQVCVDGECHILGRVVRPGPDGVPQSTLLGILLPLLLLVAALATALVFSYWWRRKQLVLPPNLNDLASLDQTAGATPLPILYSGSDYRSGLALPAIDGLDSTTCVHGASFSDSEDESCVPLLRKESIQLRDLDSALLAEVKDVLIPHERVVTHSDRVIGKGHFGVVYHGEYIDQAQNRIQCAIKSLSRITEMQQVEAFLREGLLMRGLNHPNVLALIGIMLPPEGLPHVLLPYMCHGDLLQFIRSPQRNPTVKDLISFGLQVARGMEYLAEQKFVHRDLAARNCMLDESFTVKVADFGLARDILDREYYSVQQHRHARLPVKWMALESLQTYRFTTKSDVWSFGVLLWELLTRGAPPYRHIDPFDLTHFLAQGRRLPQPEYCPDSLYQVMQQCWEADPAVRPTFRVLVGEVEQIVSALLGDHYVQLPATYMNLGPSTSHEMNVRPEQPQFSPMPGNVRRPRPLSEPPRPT

[8] = molecular target: G protein-coupled receptor kinase 6 (Homo sapiens) (UniProt P43250); assay: Inhibition of GRK6 (unknown origin) at 1 uM in presence of ATP relative to control; values are per cent of control
[9] = tested on: BFTC-905; assay: Inhibition of cell proliferation in human BFTC-905 cells upto 10 umol/L incubated for 72 hrs by DAPI staining based analysis; format: functional; settings: dose <= 10.0 µmol/L
[10] = molecular target: TAK1/TAB1 (Homo sapiens) (UniProt Q15750+O43318); assay: Inhibition of TAK1-TAB1 (unknown origin) at 1 uM in presence of ATP relative to control; values are per cent of control
[11] = molecular target: RAC-gamma serine/threonine-protein kinase (Homo sapiens) (UniProt Q9Y243); assay: Inhibition of AKT3 (unknown origin) at 1 uM in presence of ATP relative to control; values are per cent of control
[12] = molecular target: Serine/threonine-protein kinase pim-1 (Homo sapiens) (UniProt P11309); assay: Inhibition of Pim-1 (unknown origin) at 1 uM in presence of ATP relative to control; values are per cent of control
Serine/threonine-protein kinase pim-1 (Homo sapiens), sequence (P11309 whole entry, looked up): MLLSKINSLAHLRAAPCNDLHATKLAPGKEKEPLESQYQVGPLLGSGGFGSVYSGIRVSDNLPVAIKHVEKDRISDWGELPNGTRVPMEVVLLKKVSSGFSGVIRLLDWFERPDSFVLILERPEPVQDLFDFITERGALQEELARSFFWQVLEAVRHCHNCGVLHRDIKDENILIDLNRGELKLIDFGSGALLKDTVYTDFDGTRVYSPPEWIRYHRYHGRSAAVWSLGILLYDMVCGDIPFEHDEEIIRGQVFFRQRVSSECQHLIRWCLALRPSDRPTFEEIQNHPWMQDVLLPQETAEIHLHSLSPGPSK

[13] = AUC in pediatric patient with recurrent ETV6-NTRK3-rearranged infantile fibrosarcoma at 60 mg administered twice a day as liquid formulation for 8 day by LC-MS/MS analysis; format: ADME; settings: human, in vivo
[14] = molecular target: Serine/threonine-protein kinase Nek3 (Homo sapiens) (UniProt P51956); assay: Inhibition of NEK3 (unknown origin) at 1 uM in presence of ATP relative to control; values are per cent of control
Serine/threonine-protein kinase Nek3 (Homo sapiens), sequence (P51956 whole entry): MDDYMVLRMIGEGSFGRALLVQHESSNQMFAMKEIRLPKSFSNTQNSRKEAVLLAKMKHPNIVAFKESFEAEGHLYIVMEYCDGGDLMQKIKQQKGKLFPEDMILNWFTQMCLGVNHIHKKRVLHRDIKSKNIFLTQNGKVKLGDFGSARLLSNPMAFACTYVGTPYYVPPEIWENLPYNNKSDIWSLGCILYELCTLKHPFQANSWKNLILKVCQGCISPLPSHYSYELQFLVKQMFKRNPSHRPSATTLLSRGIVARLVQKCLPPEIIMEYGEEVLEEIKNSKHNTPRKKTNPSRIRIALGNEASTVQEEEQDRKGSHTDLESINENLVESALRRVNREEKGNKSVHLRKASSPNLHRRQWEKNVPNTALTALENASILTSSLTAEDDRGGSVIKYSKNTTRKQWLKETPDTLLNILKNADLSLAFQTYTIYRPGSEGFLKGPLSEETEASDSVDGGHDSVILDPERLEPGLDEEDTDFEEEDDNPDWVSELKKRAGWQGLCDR

[15] = molecular target: Mitogen-activated protein kinase 12 (Homo sapiens) (UniProt P53778); assay: Inhibition of p38gamma (unknown origin) at 1 uM in presence of ATP relative to control; values are per cent of control
Mitogen-activated protein kinase 12 (Homo sapiens), sequence (P53778 whole entry, the tested form may be a part): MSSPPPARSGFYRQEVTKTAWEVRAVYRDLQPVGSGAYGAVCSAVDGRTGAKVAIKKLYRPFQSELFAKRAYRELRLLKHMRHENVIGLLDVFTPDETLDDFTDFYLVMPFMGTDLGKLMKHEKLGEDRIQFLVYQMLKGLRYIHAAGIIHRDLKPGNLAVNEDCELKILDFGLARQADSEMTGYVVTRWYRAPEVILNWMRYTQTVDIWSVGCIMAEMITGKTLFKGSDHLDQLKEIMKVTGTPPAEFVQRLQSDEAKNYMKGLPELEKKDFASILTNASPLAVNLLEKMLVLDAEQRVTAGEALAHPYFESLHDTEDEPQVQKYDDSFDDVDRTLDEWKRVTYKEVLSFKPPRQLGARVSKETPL

[16] = Inhibition of human extracellular domain deleted TRKA G667S mutant expressed in mouse NIH3T3 cells assessed as reduction in TRKA phosphorylation incubated for 1 hrs by ELISA; format: cell-based; settings: NIH3T3, 1 h
[17] = tested on: NIH3T3; assay: Antitumor activity against mouse NIH3T3 cells harboring extracellular domain deleted TRKA G595R mutant implanted in nu/nu NCr mouse assessed as inhibition of tumor growth at 30 to 300 mg/kg, po administered twice daily for 12 days; format: functional, organism-based; settings: dose 30-300 mg/kg, time 12.0 day
[18] = molecular target: Tyrosine-protein kinase receptor TYRO3 (Homo sapiens) (UniProt Q06418); assay: Inhibition of Rse (unknown origin) at 1 uM in presence of ATP relative to control; values are per cent of control
[19] = molecular target: Serine/threonine-protein kinase Nek11 (Homo sapiens) (UniProt Q8NG66); assay: Inhibition of NEK11 (unknown origin) at 1 uM in presence of ATP relative to control; values are per cent of control
[20] = molecular target: Mitogen-activated protein kinase 8 (Homo sapiens) (UniProt P45983); assay: Inhibition of JNK1alpha1 (unknown origin) at 1 uM in presence of ATP relative to control; values are per cent of control
Mitogen-activated protein kinase 8 (Homo sapiens), sequence (P45983 whole entry): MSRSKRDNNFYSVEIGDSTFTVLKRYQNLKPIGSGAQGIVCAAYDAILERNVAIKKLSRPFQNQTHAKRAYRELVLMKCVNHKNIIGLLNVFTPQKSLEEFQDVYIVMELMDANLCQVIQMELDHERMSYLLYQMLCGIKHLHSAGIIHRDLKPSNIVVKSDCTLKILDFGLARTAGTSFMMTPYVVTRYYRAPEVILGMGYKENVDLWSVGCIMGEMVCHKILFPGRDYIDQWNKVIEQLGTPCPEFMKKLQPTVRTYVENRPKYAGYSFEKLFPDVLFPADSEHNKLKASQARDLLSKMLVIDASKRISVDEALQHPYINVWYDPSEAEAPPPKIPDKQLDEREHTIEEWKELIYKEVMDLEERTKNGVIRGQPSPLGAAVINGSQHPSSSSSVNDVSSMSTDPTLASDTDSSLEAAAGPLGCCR

[21] = tested on: JeKo-1; assay: Inhibition of cell proliferation in human JeKo-1 cells upto 10 umol/L incubated for 72 hrs by DAPI staining based analysis; format: functional; settings: dose <= 10.0 µmol/L
[22] = Cmin in pediatric patient with recurrent ETV6-NTRK3-rearranged infantile fibrosarcoma at 20 mg administered twice a day as liquid formulation for 1 day and measured 12 hrs post dose by LC-MS/MS analysis; format: ADME; settings: human, in vivo, read-out: Cmin
[23] = Cmax in adult patient with recurrent LMNA-NTRK1 rearranged colorectal cancer at 50 mg administered twice a day as powder-in-capsule or liquid formulation for 1 day by LC-MS/MS analysis; format: ADME; settings: human, in vivo, po
[24] = molecular target: Protein kinase C alpha type (Homo sapiens) (UniProt P17252); assay: Inhibition of PKCalpha (unknown origin) at 1 uM in presence of ATP relative to control; values are per cent of control
[25] = tested on: CGTH-W-1; assay: Inhibition of cell proliferation in human CGTH-W-1 cells upto 10 umol/L incubated for 72 hrs by DAPI staining based analysis; format: functional; settings: dose <= 10.0 µmol/L
[26] = molecular target: Activated CDC42 kinase 1 (Homo sapiens) (UniProt Q07912); assay: Inhibition of TNK2 (unknown origin) at 1 uM in presence of ATP relative to control; values are per cent of control
[27] = tested on: KM12; assay: Inhibition of cell proliferation in TPM3-NTRK1 fusion positive human KM12 cells incubated for 72 hrs by DAPI staining based analysis; format: functional; settings: KM12, 72 h
[28] = molecular target: Death-associated protein kinase 1 (Homo sapiens) (UniProt P53355); assay: Inhibition of DAPK1 (unknown origin) at 1 uM in presence of ATP relative to control; values are per cent of control
[29] = molecular target: Platelet-derived growth factor receptor beta (Homo sapiens) (UniProt P09619); assay: Inhibition of PDGFRbeta (unknown origin) at 1 uM in presence of ATP relative to control; values are per cent of control
Platelet-derived growth factor receptor beta (Homo sapiens), sequence (P09619 whole entry): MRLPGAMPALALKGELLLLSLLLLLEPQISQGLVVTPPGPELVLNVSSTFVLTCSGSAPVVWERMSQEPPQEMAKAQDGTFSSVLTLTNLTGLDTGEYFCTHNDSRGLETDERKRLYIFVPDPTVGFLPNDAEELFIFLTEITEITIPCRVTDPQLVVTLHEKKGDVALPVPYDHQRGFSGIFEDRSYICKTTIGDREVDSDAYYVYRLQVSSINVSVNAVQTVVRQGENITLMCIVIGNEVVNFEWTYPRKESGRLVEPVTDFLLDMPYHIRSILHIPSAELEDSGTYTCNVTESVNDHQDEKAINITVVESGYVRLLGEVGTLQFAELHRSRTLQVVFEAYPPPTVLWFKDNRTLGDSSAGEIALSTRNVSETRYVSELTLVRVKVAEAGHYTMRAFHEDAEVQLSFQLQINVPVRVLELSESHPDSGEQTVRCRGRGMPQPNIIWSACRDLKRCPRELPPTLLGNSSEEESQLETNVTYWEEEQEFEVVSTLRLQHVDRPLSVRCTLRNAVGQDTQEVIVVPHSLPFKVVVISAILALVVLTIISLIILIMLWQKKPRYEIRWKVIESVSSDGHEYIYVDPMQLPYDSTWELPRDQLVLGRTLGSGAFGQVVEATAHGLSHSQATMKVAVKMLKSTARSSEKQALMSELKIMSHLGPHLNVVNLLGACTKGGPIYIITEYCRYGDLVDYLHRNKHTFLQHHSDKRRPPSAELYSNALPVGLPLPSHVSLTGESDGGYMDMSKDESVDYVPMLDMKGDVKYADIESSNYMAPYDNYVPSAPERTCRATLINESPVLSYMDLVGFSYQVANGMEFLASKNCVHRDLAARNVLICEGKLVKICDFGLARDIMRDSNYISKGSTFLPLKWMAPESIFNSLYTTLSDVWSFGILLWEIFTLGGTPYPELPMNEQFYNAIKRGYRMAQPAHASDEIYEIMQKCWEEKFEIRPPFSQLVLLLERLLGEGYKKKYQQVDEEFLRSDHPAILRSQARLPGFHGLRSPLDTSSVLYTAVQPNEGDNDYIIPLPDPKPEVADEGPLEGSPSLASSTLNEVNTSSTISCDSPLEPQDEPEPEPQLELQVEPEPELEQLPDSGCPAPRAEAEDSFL

C[C@@H]1CCc2ncc(F)cc2[C@H]2CCCN2c2ccn3ncc(c3n2)C(=O)N1 [SELITRECTINIB]
inhibition [1]: inactive | inhibition [2]: inactive | residual activity [3]: 100% | residual activity [4]: 115% | residual activity [5]: 116% | inhibition [6]: inactive | residual activity [7]: 88.5% | residual activity [8]: 106% | inhibition [9]: inactive | residual activity [10]: 100% | residual activity [11]: 104% | residual activity [12]: 122% | AUC at 192 h [13]: 2010 ng·h/mL | residual activity [14]: 110% | residual activity [15]: 104% | IC50 [16]: 0.025 µM | Activity [17]: Active | residual activity [18]: 110% | residual activity [19]: 112% | residual activity [20]: 106% | inhibition [21]: inactive | concentration at 36 h [22]: < 1 ng/mL | Cmax [23]: 350 ng/mL | residual activity [24]: 107% | inhibition [25]: inactive | residual activity [26]: 10% | IC50 [27]: ≤ 0.005 µM | residual activity [28]: 120% | residual activity [29]: 112%
